Measured values: PubChem BioAssay (NCI)
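Briefly, cells in 96-well plates were exposed to five compound concentrations for 48 h, and endpoints were estimated by linear interpolation. Abbreviation: GI50, concentration required for 50% inhibition of growth. The concentration for full growth arrest is given as TGI.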

How the values were obtained:
Assay in all cases: inhibition of tumour cell growth, NCI panel, 48 h
HS 578T breast = system: HS 578T breast
SK-MEL-28 melanoma = system: SK-MEL-28 melanoma
SF-268 CNS = system: SF-268 CNS
MALME-3M melanoma = system: MALME-3M melanoma
CAKI-1 renal = system: CAKI-1 renal
DU-145 prostate = system: DU-145 prostate
HT29 colon = system: HT29 colon
NCI-H460 lung = system: NCI-H460 lung
HOP-62 NSCLC = system: HOP-62 NSCLC
IGROV1 ovarian = system: IGROV1 ovarian
MOLT-4 leukemia = system: MOLT-4 leukemia
HOP-92 NSCLC = system: HOP-92 NSCLC
SR leukemia = system: SR leukemia
A498 renal = system: A498 renal
SF-295 CNS = system: SF-295 CNS
SF-539 CNS = system: SF-539 CNS
SK-MEL-5 melanoma = system: SK-MEL-5 melanoma
OVCAR-5 ovarian = system: OVCAR-5 ovarian
OVCAR-4 ovarian = system: OVCAR-4 ovarian
RPMI-8226 leukemia = system: RPMI-8226 leukemia
LOX IMVI melanoma = system: LOX IMVI melanoma
SNB-19 CNS = system: SNB-19 CNS
BT-549 breast = system: BT-549 breast
TK-10 renal = system: TK-10 renal
HCC-2998 colon = system: HCC-2998 colon
HL-60(TB) leukemia = system: HL-60(TB) leukemia
UACC-62 melanoma = system: UACC-62 melanoma
U251 CNS = system: U251 CNS
KM12 colon = system: KM12 colon
UACC-257 melanoma = system: UACC-257 melanoma
786-0 renal = system: 786-0 renal
OVCAR-3 ovarian = system: OVCAR-3 ovarian
MDA-MB-231 breast = system: MDA-MB-231 breast
SN12C renal = system: SN12C renal
K-562 leukemia = system: K-562 leukemia
HCT-116 colon = system: HCT-116 colon
OVCAR-8 ovarian = system: OVCAR-8 ovarian
HCT-15 colon = system: HCT-15 colon
M14 melanoma = system: M14 melanoma
ACHN renal = system: ACHN renal
SNB-75 CNS = system: SNB-75 CNS
MDA-MB-435 = system: MDA-MB-435
PC-3 prostate = system: PC-3 prostate
COLO 205 colon = system: COLO 205 colon
MCF7 breast = system: MCF7 breast
NCI-H226 lung = system: NCI-H226 lung
NCI/ADR-RES ovarian = system: NCI/ADR-RES ovarian
SK-MEL-2 melanoma = system: SK-MEL-2 melanoma
CCRF-CEM leukemia = system: CCRF-CEM leukemia
SW-620 colon = system: SW-620 colon
NCI-H522 lung = system: NCI-H522 lung
EKVX NSCLC = system: EKVX NSCLC
RXF 393 renal = system: RXF 393 renal
A549 NSCLC = system: A549 NSCLC

Nc1ncc(-c2ccc3ncnc(N4CCc5cc(F)c(Cl)cc54)c3c2)cn1
GI50 (HS 578T breast): 406 nM | TGI (HS 578T breast): 3060 nM | GI50 (SK-MEL-28 melanoma): 2640 nM | TGI (SK-MEL-28 melanoma): > 100000 nM | GI50 (SF-268 CNS): 1020 nM | TGI (SF-268 CNS): > 100000 nM | GI50 (MALME-3M melanoma): 1730 nM | TGI (MALME-3M melanoma): > 100000 nM | GI50 (CAKI-1 renal): 418 nM | TGI (CAKI-1 renal): 6760 nM | GI50 (DU-145 prostate): 722 nM | TGI (DU-145 prostate): > 100000 nM | GI50 (HT29 colon): 1770 nM | TGI (HT29 colon): > 100000 nM | GI50 (NCI-H460 lung): 1040 nM | TGI (NCI-H460 lung): > 100000 nM | GI50 (HOP-62 NSCLC): 1450 nM | TGI (HOP-62 NSCLC): > 100000 nM | GI50 (IGROV1 ovarian): 244 nM | TGI (IGROV1 ovarian): 1270 nM | GI50 (MOLT-4 leukemia): 1830 nM | TGI (MOLT-4 leukemia): 36600 nM | GI50 (HOP-92 NSCLC): 323 nM | TGI (HOP-92 NSCLC): 3710 nM | GI50 (SR leukemia): 2250 nM | TGI (SR leukemia): > 100000 nM | GI50 (A498 renal): 256 nM | TGI (A498 renal): 1460 nM | GI50 (SF-295 CNS): 1820 nM | TGI (SF-295 CNS): > 100000 nM | GI50 (SF-539 CNS): 1910 nM | TGI (SF-539 CNS): > 100000 nM | GI50 (SK-MEL-5 melanoma): 2290 nM | TGI (SK-MEL-5 melanoma): 11000 nM | GI50 (OVCAR-5 ovarian): 1160 nM | TGI (OVCAR-5 ovarian): > 100000 nM | GI50 (OVCAR-4 ovarian): 2860 nM | TGI (OVCAR-4 ovarian): > 100000 nM | GI50 (RPMI-8226 leukemia): 866 nM | TGI (RPMI-8226 leukemia): 5440 nM | GI50 (LOX IMVI melanoma): 1940 nM | TGI (LOX IMVI melanoma): > 100000 nM | GI50 (SNB-19 CNS): 2420 nM | TGI (SNB-19 CNS): > 100000 nM | GI50 (BT-549 breast): 1060 nM | TGI (BT-549 breast): 7340 nM | GI50 (TK-10 renal): 696 nM | TGI (TK-10 renal): 7410 nM | GI50 (HCC-2998 colon): 3120 nM | TGI (HCC-2998 colon): > 100000 nM | GI50 (HL-60(TB) leukemia): 1130 nM | TGI (HL-60(TB) leukemia): > 100000 nM | GI50 (UACC-62 melanoma): 731 nM | TGI (UACC-62 melanoma): 6870 nM | GI50 (U251 CNS): 3260 nM | TGI (U251 CNS): > 100000 nM | GI50 (KM12 colon): 3360 nM | TGI (KM12 colon): > 100000 nM | GI50 (UACC-257 melanoma): 3730 nM | TGI (UACC-257 melanoma): > 100000 nM | GI50 (786-0 renal): 741 nM | TGI (786-0 renal): > 100000 nM | GI50 (OVCAR-3 ovarian): 1350 nM | TGI (OVCAR-3 ovarian): > 100000 nM | GI50 (MDA-MB-231 breast): 1020 nM | TGI (MDA-MB-231 breast): 14300 nM | GI50 (SN12C renal): 1060 nM | TGI (SN12C renal): > 100000 nM | GI50 (K-562 leukemia): 3160 nM | TGI (K-562 leukemia): > 100000 nM | GI50 (HCT-116 colon): 1990 nM | TGI (HCT-116 colon): > 100000 nM | GI50 (OVCAR-8 ovarian): 2300 nM | TGI (OVCAR-8 ovarian): > 100000 nM | GI50 (HCT-15 colon): 1940 nM | TGI (HCT-15 colon): > 100000 nM | GI50 (M14 melanoma): 2860 nM | TGI (M14 melanoma): > 100000 nM | GI50 (ACHN renal): 557 nM | TGI (ACHN renal): > 100000 nM | GI50 (SNB-75 CNS): 162 nM | TGI (SNB-75 CNS): 1850 nM | GI50 (MDA-MB-435): 2610 nM | TGI (MDA-MB-435): > 100000 nM | GI50 (PC-3 prostate): 1030 nM | TGI (PC-3 prostate): > 100000 nM | GI50 (COLO 205 colon): 1910 nM | TGI (COLO 205 colon): 16000 nM | GI50 (MCF7 breast): 278 nM | TGI (MCF7 breast): > 100000 nM | GI50 (NCI-H226 lung): 1340 nM | TGI (NCI-H226 lung): > 100000 nM | GI50 (NCI/ADR-RES ovarian): 2700 nM | TGI (NCI/ADR-RES ovarian): > 100000 nM | GI50 (SK-MEL-2 melanoma): 2430 nM | TGI (SK-MEL-2 melanoma): 8530 nM | GI50 (CCRF-CEM leukemia): 1600 nM | TGI (CCRF-CEM leukemia): > 100000 nM | GI50 (SW-620 colon): 2510 nM | TGI (SW-620 colon): > 100000 nM | GI50 (NCI-H522 lung): 2800 nM | TGI (NCI-H522 lung): > 100000 nM | GI50 (EKVX NSCLC): 499 nM | TGI (EKVX NSCLC): 10100 nM | GI50 (RXF 393 renal): 350 nM | TGI (RXF 393 renal): 2260 nM | GI50 (A549 NSCLC): 1320 nM | TGI (A549 NSCLC): > 100000 nM
